# Biological target: ATP-dependent translocase ABCB1 (Homo sapiens, UniProt P08183)
# Sequence (P08183 whole entry): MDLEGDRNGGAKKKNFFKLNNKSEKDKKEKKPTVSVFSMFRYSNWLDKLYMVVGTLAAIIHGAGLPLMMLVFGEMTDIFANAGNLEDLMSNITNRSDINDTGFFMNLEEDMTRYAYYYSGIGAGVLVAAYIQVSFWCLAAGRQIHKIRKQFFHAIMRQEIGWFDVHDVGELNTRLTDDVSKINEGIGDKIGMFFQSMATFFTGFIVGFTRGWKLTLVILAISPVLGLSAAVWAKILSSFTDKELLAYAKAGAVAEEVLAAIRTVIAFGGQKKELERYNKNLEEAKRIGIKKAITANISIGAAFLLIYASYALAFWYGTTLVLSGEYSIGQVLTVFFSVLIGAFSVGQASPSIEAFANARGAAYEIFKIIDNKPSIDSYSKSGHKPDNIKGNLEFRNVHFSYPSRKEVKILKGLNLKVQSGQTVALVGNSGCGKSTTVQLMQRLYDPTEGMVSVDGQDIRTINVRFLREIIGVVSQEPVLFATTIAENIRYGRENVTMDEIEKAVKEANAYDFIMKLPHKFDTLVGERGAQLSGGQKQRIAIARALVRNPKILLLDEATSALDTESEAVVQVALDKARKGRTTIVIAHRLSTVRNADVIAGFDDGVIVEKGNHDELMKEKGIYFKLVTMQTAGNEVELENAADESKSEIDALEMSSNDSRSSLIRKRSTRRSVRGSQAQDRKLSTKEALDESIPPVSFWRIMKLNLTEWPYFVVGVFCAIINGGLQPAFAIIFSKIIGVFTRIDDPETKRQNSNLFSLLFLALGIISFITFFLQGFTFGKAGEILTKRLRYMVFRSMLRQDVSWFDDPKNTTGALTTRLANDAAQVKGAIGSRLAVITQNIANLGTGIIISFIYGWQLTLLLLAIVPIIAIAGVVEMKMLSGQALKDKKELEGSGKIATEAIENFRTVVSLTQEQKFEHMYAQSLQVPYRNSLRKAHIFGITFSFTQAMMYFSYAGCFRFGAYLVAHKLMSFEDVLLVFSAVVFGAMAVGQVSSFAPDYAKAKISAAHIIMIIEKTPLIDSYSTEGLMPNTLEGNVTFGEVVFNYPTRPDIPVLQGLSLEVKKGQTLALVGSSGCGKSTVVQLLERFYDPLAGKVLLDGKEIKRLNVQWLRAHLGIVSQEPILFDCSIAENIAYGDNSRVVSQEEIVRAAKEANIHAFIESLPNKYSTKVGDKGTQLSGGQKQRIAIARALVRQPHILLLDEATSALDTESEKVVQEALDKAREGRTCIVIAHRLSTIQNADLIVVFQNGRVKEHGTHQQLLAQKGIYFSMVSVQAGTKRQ
row,SMILES,EC50 [µM]
1,Cc1cccc(N2CCN(C[C@@H](O)COc3cccc(C(=O)CCc4ccccc4)c3)CC2)c1C,0.138
2,CC(C)(C)O[C@H](CCc1ccccc1)c1ccccc1OC[C@H](O)CN1CCCCC1,0.398
3,O=C(c1ccccc1)c1ccccc1OC[C@H](O)CN1CCC(O)(c2ccccc2)CC1,0.309
4,O=C(c1ccccc1)c1ccccc1OC[C@H](O)CN1CCN(c2ccc(F)cc2)CC1,0.148
5,CC(=O)c1ccccc1OC[C@H](O)CN1CCC(Cc2ccccc2)CC1,0.355
6,CC(=O)c1ccccc1OC[C@H](O)CN1CCC(O)(c2ccccc2)CC1,3.16
7,Cc1ccccc1N1CCN(C[C@@H](O)COc2ccccc2C(=O)CCc2ccc(Cl)cc2)CC1,0.0191
8,Cc1ccc(CCC(=O)c2ccccc2OC[C@H](O)CN2CCN(c3ccccc3C)CC2)cc1,0.0182
9,COc1ccc(CCC(=O)c2ccccc2OC[C@H](O)CN2CCN(c3ccccc3C)CC2)cc1,0.0141
10,Cc1ccccc1N1CCN(C[C@@H](O)COc2ccccc2C(=O)CCc2ccc(Cl)c(Cl)c2)CC1,0.038
11,CC(=O)O[C@@H](COc1ccccc1C(=O)CCc1ccccc1)CN1CCCCC1,0.339
12,COC(=O)c1ccc(NC[C@@H](O)COc2ccccc2C(=O)CCc2ccccc2)cc1,1.55
13,Cc1ccccc1N1CCN(C[C@@H](O)COc2ccc(Cl)cc2C(=O)CCc2ccccc2)CC1,0.0589
14,COc1ccc(OC[C@H](O)CN2CCN(c3ccccc3C)CC2)c(C(=O)CCc2ccccc2)c1,0.178
15,Cc1ccc(OC[C@H](O)CN2CCN(c3ccccc3C)CC2)c(C(=O)CCc2ccccc2)c1,0.0257
16,O=C(CCc1ccccc1)c1ccccc1OC[C@H](O)CNc1ccc(C(F)(F)F)cc1,8.51
17,O=C(CCc1ccccc1)c1ccccc1OC[C@H](O)CNc1ccc([N+](=O)[O-])cc1,2.57
18,CCC(=O)N(Cc1ccccc1)C[C@@H](O)COc1ccccc1C(=O)CCc1ccccc1,1.66
19,CCCN(C[C@@H](O)COc1ccccc1C(=O)CCc1ccccc1)C(=O)c1ccccc1,1.7
20,O=C(CCc1cccc2ccccc12)c1ccccc1OC[C@H](O)CN1CCOCC1,0.724
21,CC(C)N(C[C@@H](O)COc1ccccc1C(=O)CCc1cccc2ccccc12)C(C)C,0.468
22,CCC(=O)c1ccccc1OC[C@H](O)CN1CCC(O)(c2ccccc2)CC1,0.302
23,O=C(CCc1cccc2ccccc12)c1ccccc1OC[C@H](O)CN1CCC(O)(c2ccccc2)CC1,0.0759
24,CC(=O)c1cccc(OC[C@H](O)CN2CCOCC2)c1,129
25,CC(=O)c1cccc(OC[C@H](O)CN2CCCCC2)c1,9.12
26,CC(=O)c1cccc(OC[C@H](O)CN2CCN(c3ccc(F)cc3)CC2)c1,10

row,SMILES,EC50 [µM]
1,O=C(CCc1ccccc1)c1ccccc1OC[C@H](O)CN1CCN(C(=O)c2ccccc2)CC1,0.129
2,CC(=O)c1ccc(OC[C@H](O)CN2CCCCC2)cc1,49
3,CC(=O)c1ccc(OC[C@H](O)CN2CCN(c3ccc(F)cc3)CC2)cc1,11.7
4,CC(=O)c1ccc(OC[C@H](O)CN2CCOCC2)cc1,302
5,CN(CCN(C)S(=O)(=O)c1cccc2c(N(C)C)cccc12)C[C@@H](O)COc1ccccc1C(=O)c1ccccc1,1.82
6,CCCNC[C@@H](O)COc1ccc(C)cc1C(=O)c1ccccc1,1.2
7,CC(C)[C@H](NC[C@@H](O)COc1ccccc1C(=O)CCc1ccccc1)c1ccccc1,0.209
8,O=C(CCc1ccccc1)c1ccccc1OC[C@H](O)CN[C@@H](c1ccccc1)C1CCCCC1,0.145
9,Cc1ccccc1N1CCN(C[C@@H](O)COc2cc(Cl)c(Cl)cc2C(=O)CCc2ccccc2)CC1,0.017
10,O=C1CCc2cccc(OC[C@H](O)CN3CCCCC3)c21,9.77
11,CC(C)(C)[C@@H](NC[C@@H](O)COc1ccccc1C(=O)CCc1ccccc1)c1ccccc1,0.295
12,O=C1CCc2c(OC[C@H](O)CN3CCCCC3)cccc21,11.2
13,O=C1c2c(cccc2OC[C@H](O)CN2CCCCC2)C[C@@H]1Cc1ccccc1,0.214
14,O=C1c2cccc(OC[C@H](O)CN3CCCCC3)c2C[C@H]1Cc1ccccc1,0.141
15,Cc1cccc(N2CCN(C[C@@H](O)COc3cccc4c3C(=O)[C@@H](Cc3ccccc3)C4)CC2)c1C,0.166
16,COc1ccc(N2CCN(C[C@@H](O)COc3cccc4c3C(=O)[C@@H](Cc3ccccc3)C4)CC2)cc1,0.389
17,O=C1c2c(cccc2OC[C@H](O)CN2CCOCC2)C[C@@H]1Cc1ccccc1,0.295
18,O=C1C[C@H](CN2CCCCC2)Oc2ccccc21,178
19,O=C1C[C@H](CN2CCN(c3ccc(F)cc3)CC2)Oc2ccccc21,17.8
20,Cc1cccc(N2CCN(C[C@H]3CC(=O)c4ccccc4O3)CC2)c1C,2.04
21,O=C1C[C@H](CN2CCN(Cc3ccccc3)CC2)Oc2ccccc21,8.91
22,O=C1C[C@H](CN2CCOCC2)Oc2ccccc21,1260
23,CC(=O)c1ccc(OC[C@H](O)CN2CCN(c3ccccc3C)CC2)cc1,1.55
24,CC(=O)c1cccc(OC[C@H](O)CN2CCN(c3cccc(C)c3C)CC2)c1,0.38
25,O=C([C@@H]1Oc2ccccc2[C@@H]1CCc1ccccc1)N1CCCCC1,6.61
26,C[C@H]1c2ccccc2O[C@H]1C(=O)N1CCCCC1,105

row,SMILES,EC50 [µM]
1,c1ccc(CC[C@H]2c3ccccc3O[C@H]2CN2CCCCC2)cc1,1.62
2,C[C@H]1c2ccccc2O[C@H]1CN1CCCCC1,49
3,CC(=O)c1cccc(OC[C@H](O)CN2CCN(c3ccccc3C)CC2)c1,0.537
4,Cc1cccc(N2CCN(C[C@@H](O)COc3ccc(C(=O)CCc4ccccc4)cc3)CC2)c1C,0.229
5,COc1ccc(C(=O)CCc2ccccc2)c(OC[C@H](O)CN2CCN(c3ccccc3C)CC2)c1,0.0309
6,COc1ccc(C(=O)CCc2ccccc2)c(OC[C@H](O)CN2CCCCC2)c1,0.295
7,Cc1ccccc1N1CCN(C[C@@H](O)COc2ccccc2C(=O)CCc2ccc(N(C)C)cc2)CC1,0.0129
8,COc1ccc(OC[C@H](O)CN2CCN(c3ccccc3C)CC2)c(C(C)=O)c1,0.851
9,COc1ccc(C(=O)CCc2ccc(N(C)C)cc2)c(OC[C@H](O)CN2CCN(c3ccccc3C)CC2)c1,0.0398
10,CC(=O)c1ccc(OC[C@H](O)CNCCC(c2ccccc2)c2ccccc2)cc1,0.178
11,Cc1ccccc1N1CCN(C[C@@H](O)COc2cccc(C(=O)CCc3ccccc3)c2)CC1,0.0741
12,O=C(CCc1ccccc1)c1cccc(OC[C@H](O)CNCCC(c2ccccc2)c2ccccc2)c1,0.191
13,O=C(CCc1ccccc1)c1cccc(OC[C@H](O)CN2CCOCC2)c1,3.47
14,O=C(CCc1ccccc1)c1ccc(OC[C@H](O)CNCCC(c2ccccc2)c2ccccc2)cc1,0.501
15,O=C(CCc1ccccc1)c1cc(OCc2ccccc2)ccc1OC[C@H](O)CN1CCC(O)(c2ccccc2)CC1,0.0851
16,CC(C)(C)OC(=O)N1CCN(C[C@@H](O)COc2ccccc2C(=O)c2ccccc2)CC1,0.871
17,CC(=O)c1ccccc1OC[C@H](O)CN(C(C)C)C(C)C,10
18,O[C@@H](COc1ccccc1[C@@H](O)CCc1ccccc1)CN1CCN(Cc2ccccc2)CC1,0.186
19,CO[C@@H](CCc1ccccc1)c1ccccc1OC[C@H](O)CN1CCN(Cc2ccccc2)CC1,0.0794
20,Cc1ccccc1N1CCN(C[C@@H](O)COc2ccccc2[C@@H](O)CCc2ccccc2)CC1,0.0447
21,CO[C@@H](CCc1ccccc1)c1ccccc1OC[C@H](O)CN1CCN(c2ccccc2C)CC1,0.0363
22,Cc1cccc(N2CCN(C[C@@H](O)COc3ccccc3[C@@H](O)CCc3ccccc3)CC2)c1C,0.0832
23,CCC(=O)c1ccccc1OC[C@H](O)CN1CCN(c2ccc(F)cc2)CC1,0.832
24,CCC(=O)c1ccccc1OC[C@H](O)CN(C(C)C)C(C)C,4.27
25,CCC(=O)c1ccccc1OC[C@H](O)CN1CCN(Cc2ccccc2)CC1,1.45
26,CCC(=O)c1ccccc1OC[C@H](O)CNCCC(c1ccccc1)c1ccccc1,0.12

row,SMILES,EC50 [µM]
1,CC(=O)c1cc(C)ccc1OC[C@H](O)CN1CCOCC1,12.6
2,CC(=O)c1cc(C)ccc1OC[C@H](O)CN(C(C)C)C(C)C,6.17
3,CC(=O)c1cc(C)ccc1OC[C@H](O)CN1CCN(c2ccc(F)cc2)CC1,3.63
4,Cc1ccc(OC[C@H](O)CN2CCCCC2)c(C(=O)CCc2ccccc2)c1,0.263
5,Cc1ccc(OC[C@H](O)CN2CCOCC2)c(C(=O)CCc2ccccc2)c1,1.66
6,Cc1ccc(OC[C@H](O)CN2CCN(c3ccc(F)cc3)CC2)c(C(=O)CCc2ccccc2)c1,0.245
7,Cc1ccc(OC[C@H](O)CN2CCN(c3cccc(C)c3C)CC2)c(C(=O)CCc2ccccc2)c1,0.0562
8,Cc1ccc(NC(=S)N2CCN(C[C@@H](O)COc3ccccc3C(=O)c3ccccc3)CC2)cc1,0.38
9,Cc1ccc(NC(=O)N2CCN(C[C@@H](O)COc3ccccc3C(=O)c3ccccc3)CC2)cc1,0.479
10,O=C(c1ccccc1)c1ccccc1OC[C@@H](O)CN1CCN(C[C@@H](O)COc2ccccc2C(=O)c2ccccc2)CC1,0.0525
11,CC(=O)c1cc(C)ccc1OC[C@H](O)CN1CCN(C[C@H](O)COc2ccccc2C(=O)c2ccccc2)CC1,9.55
12,COc1ccc(N2CCN(C[C@@H](O)COc3ccc(C)cc3C(C)=O)CC2)cc1,3.47
13,CC(=O)c1cc(C)ccc1OC[C@H](O)CN1CCN(C(=O)Nc2ccc(C)cc2)CC1,7.41
14,CC(=O)c1cc(C)ccc1OC[C@H](O)CN1CCN(c2ccc(C)cc2)CC1,3.16
15,O=C(c1ccccc1)c1ccc(OC[C@H](O)CN2CCN(c3ccc(F)cc3)CC2)cc1,0.977
16,Cc1ccccc1N1CCN(C[C@@H](O)COc2ccc(C(=O)c3ccccc3)cc2)CC1,0.501
17,Cc1cccc(N2CCN(C[C@@H](O)COc3ccc(C(=O)c4ccccc4)cc3)CC2)c1C,0.661
18,CCC(=O)c1ccc(OC[C@H](O)CN2CCN(c3cccc(C)c3C)CC2)cc1,1.41
19,CCC(=O)c1ccc(OC[C@H](O)CN2CCN(c3ccc(F)cc3)CC2)cc1,1.45
20,CCC(=O)c1ccc(OC[C@H](O)CN2CCN(c3ccccc3C)CC2)cc1,0.871
21,CCC(=O)c1ccc(OC[C@H](O)CN2CCCCC2)cc1,33.1
22,O=C(CCc1cccc2ccccc12)c1ccc(OC[C@H](O)CN2CCOCC2)cc1,1.55
23,O=C(c1ccccc1)c1ccccc1OC[C@H](O)CN1CCOCC1,13.5

# From ChEMBL document CHEMBL2449286, “Structure-activity data for a series of P-glycoprotein inhibitors (Supplementary Data to CHEMBL1142990)”
